This assay concerns the target Fascin (Homo sapiens, UniProt Q16658). The experiment in a line: Image-based F-actin bundling assay. In kind it is biochemical. The note with it: 400 µM compound.

Structures are written as SMILES.

In the case of `O=C(Nc1ccncc1)c1cn(Cc2ccc(Cl)c(Cl)c2)c(=O)c2cnn(C3CCNCC3)c12` [BDP-13176], the “Inhibition of fascin-mediated F-actin bundle formation” value is listed as “prevents fiber formation”.

For the origin of these results see article PMC12037858 (Scientific Reports, 2025).
